Measurements as given in US12264163B2, “Compounds and methods for treating fibrotic pathologies” (Mayo Foundation for Medical Education and Research, priority 2019, dated 2025).
Counter-ions that a name gives are not always drawn.

Columns and labels:
αSMA = αSMA intensity (fibroblast activation) in IPF patient-derived lung fibroblasts + TGFβ, dopaminergic agonist library; type: cell-based, human; details: 1 μM + TGFβ, 72 hours
Description: (§1) Media was then exchanged for the indicated conditions for each experiment. […] Cells or tissue sections were incubated overnight with mouse monoclonal antibody against αSMA (Sigma-Aldrich F3777), and/or a rabbit monoclonal antibody against YAP/TAZ (Cell Signaling D24E4) diluted 1:200 in PBS with 1% BSA. Cells were then washed and exposed to flourescence-conjugated secondary antibodies (Invitrogen) diluted 1:1000 and DAPI (Thermo Fisher Scientific). Images were taken with a Cytation5 (BioTek) microscope. For scoring αSMA positive cells (FIG. 12), an observer blinded to the treatment conditions counted αSMA-positive cells using a visual threshold for bright fibrous staining; a minimum of 200 cells was counted for each condition. YAP/TAZ localization was quantified (FIGS. 6-10, 24-26, and 29-30) using Gen5 (Biotek) software. Images were taken at 4× magnification of both DAPI and YAP/TAZ staining. […] Quantification of double positive (YAP/TAZ and αSMA) cells from lung tissue sections (FIG. 17-21) was performed similarly; however separate thresholds were established for both YAP/TAZ and αSMA. A minimum of 4000 cells was quantified for each mouse.

YAP/TAZ = YAP/TAZ nuclear localization in IPF patient-derived lung fibroblasts treated with dopaminergic agonists; type: cell-based, human; details: 10 μM, 2 hours
Description: IPF patient-derived lung fibroblasts cells treated 2 hours prior to fixation with diverse dopaminergic agonists (10 μM). N=4 different patient samples. % nuclear localization of YAP/TAZ was determined using automated imaging software. Scale bar represents 100 μm.
as §1

Row | Structure (SMILES) | αSMA intensity (% of DMSO control) (αSMA; IPF-1 patient fibroblasts) | αSMA intensity (% of DMSO control) (αSMA; IPF-2 patient fibroblasts) | αSMA intensity (% of DMSO control) (αSMA; IPF-3 patient fibroblasts) | αSMA intensity (% of DMSO control) (αSMA; IPF-4 patient fibroblasts) | Nuclear localization (% of total cells) (YAP/TAZ; IPF-1 patient fibroblasts) | Nuclear localization (% of total cells) (YAP/TAZ; IPF-2 patient fibroblasts) | Nuclear localization (% of total cells) (YAP/TAZ; IPF-3 patient fibroblasts) | Nuclear localization (% of total cells) (YAP/TAZ; IPF-4 patient fibroblasts)
1 | CCCN(CCc1ccccc1)C1CCc2c(O)cccc2C1.Cl (racemic) [(±)-2-(N-phenylethyl-N-propyl)amino-5-hydroxytetralin] | 65.43 % of DMSO control | 52.77 % of DMSO control | 60.4844 % of DMSO control | 51.1 % of DMSO control | 68.85 % of total cells | 60.86 % of total cells | 68 % of total cells | 56.552 % of total cells
2 | CCCN1CCO[C@@H]2c3cc(O)ccc3OC[C@H]21.Cl (racemic) [(±)-PD 128,907•HCl, (±)-PD 128,907] | 83.68 % of DMSO control | 85.45 % of DMSO control | 94.2538 % of DMSO control | 75.15 % of DMSO control | 60.13 % of total cells | 49.54 % of total cells | 78.48 % of total cells | 60.66 % of total cells
3 | Br.C=CCN1CCc2c(cc(O)c(O)c2Cl)C(c2ccccc2)C1 (racemic) [(±)-SKF-82958•HBr, (±)-SKF-82958] | 11.78 % of DMSO control | 4.966 % of DMSO control | 2.428 % of DMSO control | 9.326 % of DMSO control | 29.15 % of total cells | 38 % of total cells | 38 % of total cells | 12.29 % of total cells
4 | NCCc1ccc(O)cc1 [4-Hydroxyphenethylamine•HCl, 4-Hydroxyphenethylamine] | – | – | – | – | 56.52 % of total cells | 45.69 % of total cells | 76.57 % of total cells | 43.3719 % of total cells
5 | Br.NC1CCc2cc(O)c(O)cc2C1 (stereo not shown) [6,7-ADTN•HBr, 6,7-ADTN] | 37.14 % of DMSO control | 4.182 % of DMSO control | 9.909 % of DMSO control | 4.888 % of DMSO control | 43.89 % of total cells | 44 % of total cells | 65.5 % of total cells | 52.65 % of total cells
6 | CCCN(CCC)[C@@H]1CCc2c(OC)cccc2[C@@H]1C.O=C(O)/C=C/C(=O)O [(+)-UH 232 maleate, (+)-UH 232] | 82.91 % of DMSO control | 63.85 % of DMSO control | 85.81 % of DMSO control | 65.71 % of DMSO control | 61.9521 % of total cells | 68 % of total cells | 71.85 % of total cells | 67.27 % of total cells
7 | NC[C@@H]1O[C@H](C23CC4CC(CC(C4)C2)C3)Cc2c1ccc(O)c2O [A-77636•HCl•H2O, A-77636] | 5.808 % of DMSO control | 0.7188 % of DMSO control | 0.06766 % of DMSO control | 12.43 % of DMSO control | 26.46 % of total cells | 30.88 % of total cells | 41.33 % of total cells | 37.79 % of total cells
8 | C=CCN1CCc2nc(N)sc2CC1.Cl.Cl [B-HT 920•2HCl, B-HT 920] | 74.98 % of DMSO control | 58.97 % of DMSO control | 70.12 % of DMSO control | 54.23 % of DMSO control | 75.68 % of total cells | 46.9 % of total cells | 64.79 % of total cells | 76.24 % of total cells
9 | CC(C)C[C@H]1C(=O)N2CCC[C@H]2[C@]2(O)O[C@](NC(=O)[C@@H]3C=C4c5cccc6[nH]c(Br)c(c56)C[C@H]4N(C)C3)(C(C)C)C(=O)N12 [Bromocriptine mesylate, Bromocriptine] | – | – | – | – | 73.03 % of total cells | 52.81 % of total cells | 64.09 % of total cells | 64.6 % of total cells
10 | CN1Cc2ccccc2[C@@H]2c3cccc4[nH]cc(c34)C[C@H]21 [CY 208-243] | 21.01 % of DMSO control | 2.28 % of DMSO control | 2.611 % of DMSO control | 9.643 % of DMSO control | 20.52 % of total cells | 39.79 % of total cells | 41.17 % of total cells | 19.82 % of total cells
11 | C=CCN1C[C@H](C(=O)N(CCCN(C)C)C(=O)NCC)C[C@@H]2c3cccc4[nH]cc(c34)C[C@H]21 [Cabergoline] | – | – | – | – | 57.02 % of total cells | 57.41 % of total cells | 45.95 % of total cells | 68.69 % of total cells
12 | CCCN(CCC)CCc1ccc(O)c(O)c1 [Dipropyldopamine•HBr, Dipropyldopamine] | 48.72 % of DMSO control | 28.11 % of DMSO control | 40.34 % of DMSO control | 25.86 % of DMSO control | 69.18 % of total cells | 74.36 % of total cells | 65.5 % of total cells | 51.82 % of total cells
13 | CCCN1CCC[C@@H]2Cc3nc(N)ncc3C[C@H]21.Cl.Cl [LY-163,502•2HCl, LY-163,502] | 88.99 % of DMSO control | 72.86 % of DMSO control | 75.3 % of DMSO control | 86.7894 % of DMSO control | 73.37 % of total cells | 60.97 % of total cells | 59.43 % of total cells | 66.49 % of total cells
14 | CN1C[C@@H](NS(=O)(=O)N(C)C)C[C@@H]2c3cccc4c3c(cn4C)C[C@H]21 [Mesulergine•HCl, Mesulergine] | – | – | – | – | 37.81 % of total cells | 45.14 % of total cells | 78.625 % of total cells | 45.14 % of total cells
15 | CCCN1C[C@H](CSC)C[C@@H]2c3cccc4[nH]cc(c34)C[C@H]21 [Pergolide mesylate, Pergolide] | – | – | – | – | 82.49 % of total cells | 69.37 % of total cells | 70.67 % of total cells | 65.58 % of total cells
16 | c1cnc(N2CCN(Cc3ccc4c(c3)OCO4)CC2)nc1 [Piribedil•2HCl, Piribedil] | – | – | – | – | 61.58 % of total cells | 85.76 % of total cells | 59.05 % of total cells | 59.64 % of total cells
17 | CCCN[C@H]1CCc2nc(N)sc2C1 [Pramipexole Dihydrochloride Monohydrate, Pramipexole] | – | – | – | – | 64.92 % of total cells | 47.65 % of total cells | 65.5 % of total cells | 58.97 % of total cells
18 | Oc1cc2c(cc1O)[C@@H](c1ccccc1)CNCC2 [SKF 38393•HBr, SKF 38393] | – | – | – | – | 69.5873 % of total cells | 47.375 % of total cells | 61.33 % of total cells | 35.79 % of total cells
